The values that follow come from patent US20250353891A1 (MEDIMMUNE LIMITED, priority 2022, published 2025).

Starred links: 1 amine or outer side, 2 acyl side, 3 side chain; linkers in the order of their positions; H or OH if unused. Non-standard residues stand in square brackets, D forms with d. Residues, ends and D or L forms follow the SMILES beside them. Groups on a side chain read outwards from the residue. *: point of attachment. C20 diacid = O=C(O)CCCCCCCCCCCCCCCCCCC(=O)*; C18 diacid = O=C(O)CCCCCCCCCCCCCCCCC(=O)*; γGlu = O=C(O)[C@H](CCC(=O)[*:2])N[*:1]; αMeF = C[C@](N)(Cc1ccccc1)C(=O)O; AEEA = NCCOCCOCC(=O)O; Aib = CC(C)(N)C(=O)O

In experiment [1] the target is human GLP-1 receptor (hGLP-1R) (Homo sapiens, UniProt P43220). Put plainly: cAMP production (HTRF) in CHO cells expressing hGLP-1R. The format is cell-based. On the set-up: expressed in transfected cells. As to conditions: for EC50: Table 6, peptides modified at position 17, cAMP in CHO hGLP-1R cells, geometric mean, read-out: hGLP-1R EC50; for % Relative Potency Ratio: % GLP-1R activity relative to GLP-1 / % GlucR activity relative to glucagon. How it is done:
(§1) Cells were re-suspended in assay buffer at a batch-dependent optimized concentration (typically hGLP-1R cells at 1×10^5 cells/mL, hGCGR cells at 2×10^5 cells/mL).
(§2) Cells were added to the assay plate using a multidrop dispenser and incubated at room temperature for 30 minutes before measuring the cAMP level using a cAMP dynamic 2 homogeneous time resolved Fluorescence (HTRF) kit (Cisbio Bioassays #62AM4PEJ) following the two-step protocol as per manufacturer's recommendations. In brief, anti-cAMP cryptate (donor fluorophore) and cAMP-d2 (acceptor fluorophore) were made up separately by diluting each 1 in 20 in conjugate and lysis buffer provided in the kit. Anti-CAMP cryptate was added to all wells of the assay plate, followed by cAMP-d2 added to all wells except non-specific binding (NSB) wells (to which conjugate and lysis buffer was added).
(§3) Data was transformed to % Delta F as described in the manufacturer's guidelines and analyzed by 4-parameter logistic fit to determine EC50 values.
In general terms: Cyclic AMP is a second messenger, typically raised through Gs and lowered through Gi signalling.

The target of experiment [2] is human glucagon receptor (hGCGR) (Homo sapiens, UniProt P47871). Put plainly: cAMP production (HTRF) in CHO cells expressing hGCGR. It counts as cell-based. On the set-up: expressed in transfected cells. As to conditions: Table 6, peptides modified at position 17; cAMP in CHO hGCGR cells; geometric mean; read-out: hGluc-R EC50. How it is done: as §1, §2, §3

A word on the EC50: it is the midpoint of the concentration-response curve.

Sequence of human GLP-1 receptor (hGLP-1R) (P43220 24-463): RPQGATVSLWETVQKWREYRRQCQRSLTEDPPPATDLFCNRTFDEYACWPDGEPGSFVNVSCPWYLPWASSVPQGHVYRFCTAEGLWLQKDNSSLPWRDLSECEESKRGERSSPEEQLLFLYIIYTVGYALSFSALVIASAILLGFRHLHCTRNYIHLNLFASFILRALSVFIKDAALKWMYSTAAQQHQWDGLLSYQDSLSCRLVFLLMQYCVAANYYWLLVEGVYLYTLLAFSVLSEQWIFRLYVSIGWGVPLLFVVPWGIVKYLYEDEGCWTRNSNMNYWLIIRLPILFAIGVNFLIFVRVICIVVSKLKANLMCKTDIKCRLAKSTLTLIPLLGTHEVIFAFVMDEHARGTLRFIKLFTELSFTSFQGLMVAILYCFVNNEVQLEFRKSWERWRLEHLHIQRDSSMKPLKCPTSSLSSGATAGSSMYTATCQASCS
Sequence of human glucagon receptor (hGCGR) (P47871 26-477): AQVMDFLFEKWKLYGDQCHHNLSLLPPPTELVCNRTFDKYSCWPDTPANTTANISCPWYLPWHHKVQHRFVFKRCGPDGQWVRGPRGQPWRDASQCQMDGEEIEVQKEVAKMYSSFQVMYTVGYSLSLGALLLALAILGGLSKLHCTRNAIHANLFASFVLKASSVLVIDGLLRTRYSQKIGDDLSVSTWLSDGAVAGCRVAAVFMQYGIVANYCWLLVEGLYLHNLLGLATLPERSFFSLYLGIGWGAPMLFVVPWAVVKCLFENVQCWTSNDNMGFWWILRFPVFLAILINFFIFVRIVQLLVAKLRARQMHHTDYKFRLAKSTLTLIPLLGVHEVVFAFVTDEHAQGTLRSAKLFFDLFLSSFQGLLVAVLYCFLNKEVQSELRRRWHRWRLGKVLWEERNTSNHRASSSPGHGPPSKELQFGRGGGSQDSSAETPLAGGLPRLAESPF

On to `CC[C@H](C)[C@H](NC(=O)C(C)(C)NC(=O)[C@H](CCC(N)=O)NC(=O)[C@@H](NC(=O)[C@](C)(Cc1ccccc1)NC(=O)[C@H](CC(=O)O)NC(=O)[C@H](CCC(N)=O)NC(=O)[C@H](C)NC(=O)[C@H](C)NC(=O)[C@H](CCCCNC(=O)COCCOCCNC(=O)COCCOCCNC(=O)CC[C@H](NC(=O)CCCCCCCCCCCCCCCCC(=O)O)C(=O)O)NC(=O)[C@H](CO)NC(=O)[C@H](CC(=O)O)NC(=O)[C@H](CC(C)C)NC(=O)C(C)(C)NC(=O)[C@H](CCCCN)NC(=O)[C@H](CO)NC(=O)[C@@H](NC(=O)[C@H](CC(=O)O)NC(=O)[C@H](CO)NC(=O)[C@@H](NC(=O)[C@](C)(Cc1ccccc1)NC(=O)[C@H](CO)NC(=O)CNC(=O)[C@H](CCC(N)=O)NC(=O)[C@H](CO)NC(=O)[C@@H](N)Cc1c[nH]cn1)[C@@H](C)O)C(C)C)C(C)C)C(=O)N[C@@H](C)C(=O)N[C@@H](CC(N)=O)C(N)=O` [Peptide 1] (H-HSQGS[αMeF]TSDVSK[Aib]LDSK([AEEA-AEEA-γGlu-C18 diacid])AAQD[αMeF]VQ[Aib]IAN-NH2; N-terminus assumed), for which the concentration for a half-maximal effect (EC50) is 3.2 nM in experiment [1] and over 27.1 nM in experiment [2].
For the molecule `CC[C@H](C)[C@H](NC(=O)[C@H](Cc1c[nH]c2ccccc12)NC(=O)[C@H](CCC(N)=O)NC(=O)[C@@H](NC(=O)[C@](C)(Cc1ccccc1)NC(=O)[C@H](CC(=O)O)NC(=O)[C@H](CCC(N)=O)NC(=O)[C@H](C)NC(=O)[C@H](C)NC(=O)[C@H](CCCCNC(=O)COCCOCCNC(=O)COCCOCCNC(=O)CC[C@H](NC(=O)CCCCCCCCCCCCCCCCCCC(=O)O)C(=O)O)NC(=O)[C@H](CO)NC(=O)[C@H](CC(=O)O)NC(=O)[C@H](CC(C)C)NC(=O)[C@](C)(Cc1ccccc1)NC(=O)[C@H](CCCCN)NC(=O)[C@H](CO)NC(=O)[C@@H](NC(=O)[C@H](CC(=O)O)NC(=O)[C@H](CO)NC(=O)[C@@H](NC(=O)[C@](C)(Cc1ccccc1)NC(=O)[C@H](CO)NC(=O)CNC(=O)[C@H](CCC(N)=O)NC(=O)[C@H](CO)NC(=O)[C@@H](N)Cc1c[nH]cn1)[C@@H](C)O)C(C)C)C(C)C)C(=O)N[C@@H](C)C(=O)N[C@@H](CC(N)=O)C(=O)N[C@H](C(N)=O)[C@@H](C)O` [Peptide 2] (H-HSQGS[αMeF]TSDVSK[αMeF]LDSK([AEEA-AEEA-γGlu-C20 diacid])AAQD[αMeF]VQWIANT-NH2; N-terminus assumed), the EC50 in experiment [1] stood at 1.28 nM; in experiment [2] it was 4.19 nM. Moreover, the “% Relative Potency Ratio” value in experiment [1] (Table 6) is reported as 6.5.
For the molecule `CCCCCCCCCCCCCCCCCC(=O)N[C@@H](CCC(=O)N[C@@H](CCC(=O)NCCOCCOCCC(=O)NCCOCCOCCC(=O)NCCCC[C@H](NC(=O)[C@H](CC(=O)O)NC(=O)[C@H](CO)NC(=O)[C@@H](NC(=O)[C@](C)(Cc1ccccc1)NC(=O)[C@H](CO)NC(=O)CNC(=O)[C@H](CCC(N)=O)NC(=O)[C@H](CO)NC(=O)[C@@H](N)Cc1c[nH]cn1)[C@@H](C)O)C(=O)N[C@@H](CO)C(=O)N[C@@H](CCCCN)C(=O)N[C@H](C(=O)N[C@@H](CC(C)C)C(=O)N[C@@H](CC(=O)O)C(=O)N[C@@H](CO)C(=O)N[C@H](C(=O)N[C@@H](C)C(=O)N[C@@H](C)C(=O)N[C@@H](CCC(N)=O)C(=O)N[C@@H](CC(=O)O)C(=O)N[C@@](C)(Cc1ccccc1)C(=O)N[C@H](C(=O)N[C@@H](CCC(=O)O)C(=O)NC(C)(C)C(=O)N[C@@H](CC(C)C)C(=O)N[C@@H](C)C(=O)N[C@@H](CC(N)=O)C(=O)N[C@H](C(N)=O)[C@@H](C)O)C(C)C)C(C)(C)CCNC(=N)N)C(c1ccccc1)c1ccccc1)C(=O)O)C(=O)O` [Peptide 393, HSQGS(αMePhe)TSDK((PEG)2-(PEG)2-γE-yE-Stearoyl)10SK(Dip)LDS(β-dimethylArg)AAQD(αMePhe)VE(Aib)LANT-amide], in experiment [1], the “% Relative Potency Ratio” value is on record as 9.3.
On to `CC(C)C[C@H](NC(=O)[C@H](Cc1c[nH]c2ccccc12)NC(=O)[C@H](CCCNC(=N)N)NC(=O)[C@@H](NC(=O)[C@H](Cc1ccccc1)NC(=O)[C@H](CC(=O)O)NC(=O)[C@H](CCC(N)=O)NC(=O)[C@H](C)NC(=O)[C@H](CCCNC(=N)N)NC(=O)[C@H](CCCCNC(=O)COCCOCCNC(=O)COCCOCCNC(=O)CC[C@H](NC(=O)CCCCCCCCCCCCCCCCCCC(=O)O)C(=O)O)NC(=O)[C@@H](NC(=O)[C@H](CC(=O)O)NC(=O)[C@H](CC(C)C)NC(=O)[C@](C)(Cc1ccccc1)NC(=O)[C@H](CCCCN)NC(=O)[C@H](CO)NC(=O)[C@@H](NC(=O)[C@H](CC(=O)O)NC(=O)[C@H](CO)NC(=O)[C@@H](NC(=O)[C@H](Cc1ccccc1)NC(=O)[C@@H](NC(=O)CNC(=O)[C@H](CCC(N)=O)NC(=O)C(C)(C)NC(=O)[C@@H](N)Cc1c[nH]cn1)[C@@H](C)O)[C@@H](C)O)C(C)C)[C@@H](C)O)C(C)C)C(=O)N[C@@H](CCC(=O)O)C(=O)N[C@@H](C)C(=O)NC(C)(C)C(=O)NCC(=O)O` [Peptide 407], for which the “% Relative Potency Ratio” value in experiment [1] (Table 6) is on record as 4.4.
Same read-out and setting: with `CC(C)C[C@H](NC(=O)[C@H](Cc1c[nH]c2ccccc12)NC(=O)[C@H](CCC(N)=O)NC(=O)[C@@H](NC(=O)[C@H](Cc1ccccc1)NC(=O)[C@H](CC(=O)O)NC(=O)[C@H](CCCNC(=N)N)NC(=O)[C@H](C)NC(=O)[C@H](CCCNC(=N)N)NC(=O)[C@H](CCCCNC(=O)COCCOCCNC(=O)COCCOCCNC(=O)CC[C@H](NC(=O)CCCCCCCCCCCCCCCCCCC(=O)O)C(=O)O)NC(=O)[C@@H](NC(=O)[C@H](CCC(=O)O)NC(=O)[C@H](CC(C)C)NC(=O)[C@](C)(Cc1ccccc1)NC(=O)[C@H](CCCCN)NC(=O)[C@H](CO)NC(=O)[C@@H](NC(=O)[C@H](CC(=O)O)NC(=O)[C@H](CO)NC(=O)[C@@H](NC(=O)[C@H](Cc1ccccc1)NC(=O)[C@@H](NC(=O)CNC(=O)[C@H](CCC(N)=O)NC(=O)C(C)(C)NC(=O)[C@@H](N)Cc1c[nH]cn1)[C@@H](C)O)[C@@H](C)O)C(C)C)[C@@H](C)O)C(C)C)C(=O)N[C@@H](CC(C)C)C(=O)N[C@@H](CCC(=O)O)C(=O)NC(C)(C)C(=O)NCC(=O)O` [Peptide 444] the figure was 14.1.
Regarding `CC(C)C[C@H](NC(=O)[C@H](CC(C)C)NC(=O)[C@H](Cc1c[nH]c2ccccc12)NC(=O)[C@H](CCCNC(=N)N)NC(=O)[C@@H](NC(=O)[C@H](Cc1ccccc1)NC(=O)[C@H](CC(=O)O)NC(=O)[C@H](CCC(N)=O)NC(=O)[C@H](C)NC(=O)[C@H](CCCNC(=N)N)NC(=O)[C@H](CCCCNC(=O)COCCOCCNC(=O)COCCOCCNC(=O)CC[C@H](NC(=O)CCCCCCCCCCCCCCCCC(=O)O)C(=O)O)NC(=O)[C@H](CCCNC(=N)N)NC(=O)[C@H](CC(=O)O)NC(=O)[C@H](CC(C)C)NC(=O)[C@](C)(Cc1ccccc1)NC(=O)[C@H](CCCCN)NC(=O)[C@H](CO)NC(=O)[C@@H](NC(=O)[C@H](CC(=O)O)NC(=O)[C@H](CO)NC(=O)[C@@H](NC(=O)[C@H](Cc1ccccc1)NC(=O)[C@@H](NC(=O)CNC(=O)[C@H](CCC(N)=O)NC(=O)C(C)(C)NC(=O)[C@@H](N)Cc1c[nH]cn1)[C@@H](C)O)[C@@H](C)O)C(C)C)C(C)C)C(=O)N[C@@H](C)C(=O)N[C@@H](CCC(=O)O)C(N)=O` [Peptide 461] (H-H[Aib]QGTFTSDVSK[αMeF]LDRK([AEEA-AEEA-γGlu-C18 diacid])RAQDFVRWLLAE-NH2; N-terminus assumed), the EC50 in experiment [1] stood at 0.167 nM.
In the case of `CC(C)C[C@H](NC(=O)[C@H](Cc1c[nH]c2ccccc12)NC(=O)[C@H](CCC(N)=O)NC(=O)[C@@H](NC(=O)[C@H](Cc1ccccc1)NC(=O)[C@H](CC(=O)O)NC(=O)[C@H](CCC(N)=O)NC(=O)[C@H](C)NC(=O)[C@H](CCCNC(=N)N)NC(=O)[C@H](CCCCNC(=O)COCCOCCNC(=O)COCCOCCNC(=O)CC[C@H](NC(=O)CC[C@H](NC(=O)CCCCCCCCCCCCCCCCC(=O)O)C(=O)O)C(=O)O)NC(=O)[C@H](CO)NC(=O)[C@H](CC(=O)O)NC(=O)[C@H](CC(C)C)NC(=O)[C@](C)(Cc1ccccc1)NC(=O)[C@H](CCCCN)NC(=O)[C@H](CO)NC(=O)[C@@H](NC(=O)[C@H](CC(=O)O)NC(=O)[C@H](CO)NC(=O)[C@@H](NC(=O)[C@H](Cc1ccccc1)NC(=O)[C@@H](NC(=O)CNC(=O)[C@H](CCC(N)=O)NC(=O)C(C)(C)NC(=O)[C@@H](N)Cc1c[nH]cn1)[C@@H](C)O)[C@@H](C)O)C(C)C)C(C)C)C(=O)N[C@@H](CC(C)C)C(=O)NC(C)(C)C(=O)N[C@H](C(N)=O)[C@@H](C)O` [Peptide 463] (H-H[Aib]QGTFTSDVSK[αMeF]LDSK([AEEA-AEEA-γGlu-γGlu-C18 diacid])RAQDFVQWLL[Aib]T-NH2; N-terminus assumed), the EC50 in experiment [1] is 0.274 nM.
In the case of “H(Aib)HGS(αMePhe)TSDK(O20C-O2OC-γE-γE-C20diacid)10SK(αMePhe)LDSRAAQD(αMePhe)VQ(Aib)IANT-amide [Peptide 391]”, the “% Relative Potency Ratio” value in experiment [1] stood at 49.1.
